According to US20240381872A1, “SUBSTITUTED 2,3-DIHYDRO[1,3]THIAZOLO[4,5-B]PYRIDINES, SALTS THEREOF AND THEIR USE AS HERBICIDALLY ACTIVE SUBSTANCES” (BAYER AKTIENGESELLSCHAFT, priority 2021, published 2024):

Legend:
Assay type in all cases: in vivo
Stellaria media (STEME) [1] = assay: Herbicidal pre-emergence action, section A (Table A9); conditions: for pre-emergence activity against STEME in % / pest or weed control at 1280 g/ha: application rate 1280 g/ha; for pest or weed control at 1280 g/ha / pest or weed control at 320 g/ha: Stellaria media, 504 h, read-out: pre-emergence activity against STEME in %; for pest or weed control at 320 g/ha: application rate 320 g/ha
Procedure, shortened: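 Double sowings in sandy loam; soil-surface spray of WP/EC aqueous preparations, 0.5% additive, 600 l/ha water. Greenhouse, optimum conditions. Visual % damage at ~3 wk vs untreated (100% = dead, 0% = control-like).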

Setaria viridis (SETVI) = assay: Herbicidal post-emergence action, section B (Table B8); conditions: visual rating about 3 weeks after treatment vs untreated controls; for post-emergence activity against SETVI in % / pest or weed control at 1280 g/ha: application rate 1280 g/ha
Procedure, shortened: (§1)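 Post-emergence greenhouse test: weeds sown in sandy loam, treated at one-leaf stage 2–3 weeks after sowing with WP or EC formulations sprayed as aqueous suspension/emulsion plus 0.5% additive at 600 L/ha. Activity rated visually versus untreated controls after about 3 weeks (100% = plants dead, 0% = like control).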

Stellaria media (STEME) [2] = assay: Herbicidal post-emergence action, section B (Table B9); conditions: visual rating about 3 weeks after treatment vs untreated controls; for pest or weed control at 320 g/ha / pest or weed control at 1280 g/ha: Stellaria media, post-emergence, 504 h, read-out: post-emergence activity against STEME in %
Procedure, shortened: as §1

[3] = tested on: Amaranthus retroflexus (AMARE); assay: Herbicidal post-emergence action, section B (Table B11); conditions: visual rating about 3 weeks after treatment vs untreated controls; for pest or weed control at 320 g/ha / pest or weed control at 1280 g/ha: Amaranthus retroflexus, post-emergence, 504 h, read-out: post-emergence activity against AMARE in %
Procedure, shortened: as §1

[4] = tested on: Alopecurus myosuroides (ALOMY); assay: Herbicidal pre-emergence action, section C (Table C2); conditions: visual grading after ca. 3 weeks vs untreated controls; for pre-emergence activity against ALOMY in % / pest or weed control at 320 g/ha: application rate 320 g/ha; for pest or weed control at 320 g/ha / pest or weed control at 80 g/ha: Alopecurus myosuroides, pre-emergence, 504 h, read-out: pre-emergence activity against ALOMY in %; for pest or weed control at 80 g/ha: application rate 80 g/ha
From the text: (§2) Seeds of mono- and dicotyledonous weed plants and crop plants were sown, in plastic or organic planting pots, in sandy loam and covered with soil. The compounds according to the invention, formulated in the form of wettable powders (WP) or as emulsifiable concentrates (EC), were applied to the surface of the covering soil as aqueous suspension or emulsion, with the addition of 0.5% of an additive, at an application rate of 600 l of water/ha (converted). Following treatment, the pots were placed in a greenhouse and kept under optimum growth conditions for the test plants. The visual grading of the damage to the test plants was carried out after ca. 3 weeks in comparison to untreated controls (herbicidal effect in percent (%): 100% effect=plants have died off, 0% effect=as control plants).

[5] = tested on: Matricaria inodora (MATIN); assay: Herbicidal pre-emergence action, section C (Table C6); conditions: application rate 320 g/ha, visual grading after ca. 3 weeks; for pest or weed control at 320 g/ha: Tripleurospermum inodorum, pre-emergence, 504 h, read-out: pre-emergence activity against MATIN in %
From the text: as §2

[6] = tested on: Digitaria sanguinalis (DIGSA); assay: Herbicidal pre-emergence action, section C (Table C12); conditions: visual grading after ca. 3 weeks; for pre-emergence activity against DIGSA in % / pest or weed control at 320 g/ha: application rate 320 g/ha; for pest or weed control at 320 g/ha / pest or weed control at 80 g/ha: Digitaria sanguinalis, pre-emergence, 504 h, read-out: pre-emergence activity against DIGSA in %; for pest or weed control at 80 g/ha: application rate 80 g/ha
Procedure, shortened: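 Visual damage rating at ca. 3 weeks relative to untreated controls, expressed as % effect (100% = plants died, 0% = like controls). Pre-emergence treatment: WP or EC formulations applied to the soil surface over sown seeds in sandy loam, 600 l water/ha, 0.5% additive.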

[7] = tested on: Echinochloa crus-galli (ECHCG); assay: Herbicidal post-emergence action, section E (Table E5); conditions: application rate 320 g/ha, visual assessment ca. 3 weeks after spraying
From the text: Seeds of mono- and dicotyledonous weed plants and crop plants were sown, in plastic or organic planting pots, in sandy loam, covered with soil and grown in a greenhouse under controlled growth conditions. 2 to 3 weeks after sowing, the test plants were sprayed in the single-leaf stage. The compounds according to the invention, formulated in form of wettable powders (WP) or as emulsifiable concentrates (EC), were sprayed onto the green plant parts as aqueous suspension or emulsion, with the addition of 0.5% of an additive, at an application rate of 600 l of water/ha (converted). The test plants were placed in the greenhouse for ca. 3 weeks under optimum growth conditions, and then the effect of the preparations was assessed visually in comparison with untreated controls (herbicidal effect in percent (%): 100% effect=plants have died off, 0% effect=as control plants).

Glycine max (GLXMA) = assay: Pre-emergence effects on crop plants, section D (Table D4); conditions: visual grading after ca. 3 weeks
Procedure, shortened: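 Read-out: visual percent injury versus untreated controls at ca. 3 weeks (0% as control, 100% dead). Treatment: aqueous WP/EC suspension or emulsion with 0.5% additive, 600 l/ha, on soil covering seeds in sandy loam, at 320 g/ha or below, under optimum greenhouse conditions.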

[8] = tested on: Abutilon theophrasti (ABUTH); assay: Herbicidal post-emergence action, section B (Table B1); conditions: rated visually after about 3 weeks; for pest or weed control at 1280 g/ha: Abutilon theophrasti, 504 h, application rate 1280 g/ha, read-out: post-emergence activity against ABUTH in %
Procedure, shortened: as §1

Veronica persica (VERPE) = assay: Herbicidal pre-emergence action, section C (Table C10); conditions: Veronica persica, pre-emergence, 504 h, visual grading after ca. 3 weeks, read-out: pre-emergence activity against VERPE in %; for pest or weed control at 80 g/ha: application rate 80 g/ha; for pest or weed control at 320 g/ha: application rate 320 g/ha
From the text: as §2

[9] = Setaria viridis, post-emergence, 504 h, read-out: post-emergence activity against SETVI in %

## COC(=O)CCC(=O)N1CSc2cc(Cl)c(-c3ccccc3F)nc21 [Example I-003]
Stellaria media (STEME) [1]
  pre-emergence activity against STEME in %: 90%
Setaria viridis (SETVI)
  post-emergence activity against SETVI in %: 90%
Stellaria media (STEME) [2]; application rate 1280 g/ha
  post-emergence activity against STEME in %: 90%
[3]; application rate 1280 g/ha
  post-emergence activity against AMARE in %: 90%
[4]
  pre-emergence activity against ALOMY in %: 80%
[5]
  pre-emergence activity against MATIN in %: 80%
[6]
  pre-emergence activity against DIGSA in %: 90%
[7]
  post-emergence activity against ECHCG in %: 80%

## BN1CSc2cc(Br)c(-c3ccccc3C)nc21 [Example I-011]
Stellaria media (STEME) [1]
  pre-emergence activity against STEME in %: 100%
Setaria viridis (SETVI)
  post-emergence activity against SETVI in %: 90%
Stellaria media (STEME) [2]; application rate 1280 g/ha
  post-emergence activity against STEME in %: 90%
[3]; application rate 1280 g/ha
  post-emergence activity against AMARE in %: 90%
[4]
  pre-emergence activity against ALOMY in %: 90%
[6]
  pre-emergence activity against DIGSA in %: 100%
Glycine max (GLXMA); application rate 320 g/ha
  pre-emergence activity against GLXMA in % (crop plant damage): 0%

## Clc1ccccc1-c1nc2c(cc1Br)SCN2 [Example I-041, 6-bromo-5-(2-chlorophenyl)-2,3-dihydro[1,3]thiazolo[4,5-b]pyridine]
Stellaria media (STEME) [1]
  pest or weed control at 1280 g/ha: 100%
[8]
  pest or weed control at 1280 g/ha: 90%
Setaria viridis (SETVI); [9]
  pest or weed control at 1280 g/ha: 90%
Stellaria media (STEME) [2]; application rate 320 g/ha
  pest or weed control at 320 g/ha: 90%
[3]; application rate 320 g/ha
  pest or weed control at 320 g/ha: 90%
[4]
  pest or weed control at 320 g/ha: 80%
[6]
  pest or weed control at 320 g/ha: 100%

## CCc1ccccc1-c1nc2c(cc1C)[S+]([O-])CN2 (stereo not shown) [Example I-047]
Stellaria media (STEME) [1]
  pest or weed control at 1280 g/ha: 90%
Stellaria media (STEME) [2]; application rate 1280 g/ha
  pest or weed control at 1280 g/ha: 90%
[3]; application rate 320 g/ha
  pest or weed control at 320 g/ha: 90%
Veronica persica (VERPE)
  pest or weed control at 80 g/ha: 80%
[6]
  pest or weed control at 80 g/ha: 90%
Glycine max (GLXMA); application rate 320 g/ha
  pre-emergence activity against GLXMA in % (crop plant damage): 20%

## CC(=O)N1CSc2cc(Br)c(-c3ccccc3Cl)nc21 [Example I-055, 1-[6-bromo-5-(2-chlorophenyl)[1,3]thiazolo[4,5-b]pyridin-3(2H)-yl]ethanone]
Stellaria media (STEME) [1]
  pest or weed control at 320 g/ha: 90%
Setaria viridis (SETVI); [9]
  pest or weed control at 1280 g/ha: 90%
Stellaria media (STEME) [2]; application rate 1280 g/ha
  pest or weed control at 1280 g/ha: 90%
[3]; application rate 320 g/ha
  pest or weed control at 320 g/ha: 90%
[4]
  pest or weed control at 320 g/ha: 80%
Veronica persica (VERPE)
  pest or weed control at 320 g/ha: 80%
[6]
  pest or weed control at 80 g/ha: 90%
Glycine max (GLXMA); application rate 320 g/ha
  pre-emergence activity against GLXMA in % (crop plant damage): 20%

## CCS(=O)(=O)N1CSc2cc(C)c(-c3ccccc3F)nc21 [Example I-060, 3-(ethylsulfonyl)-5-(2-fluorophenyl)-6-methyl-2,3-dihydro[1,3]thiazolo[4,5-b]pyridine]
Stellaria media (STEME) [1]
  pest or weed control at 320 g/ha: 90%
[8]
  pest or weed control at 1280 g/ha: 90%
Setaria viridis (SETVI); Setaria viridis, post-emergence, 504 h, application rate 320 g/ha, read-out: post-emergence activity against SETVI in %
  pest or weed control at 320 g/ha: 90%
Stellaria media (STEME) [2]; application rate 320 g/ha
  pest or weed control at 320 g/ha: 90%
[3]; application rate 320 g/ha
  pest or weed control at 320 g/ha: 90%
[4]
  pest or weed control at 80 g/ha: 100%
[5]
  pest or weed control at 320 g/ha: 90%
Veronica persica (VERPE)
  pest or weed control at 80 g/ha: 90%
[6]
  pest or weed control at 80 g/ha: 100%
Glycine max (GLXMA); application rate 80 g/ha
  pre-emergence activity against GLXMA in % (crop plant damage): 0%

## CC(C)C(=O)N1C[S+]([O-])c2cc(Br)c(-c3ccccc3)nc21 (stereo not shown) [Example I-067]
[4]
  pest or weed control at 320 g/ha: 90%
[5]
  pest or weed control at 320 g/ha: 80%
Veronica persica (VERPE)
  pest or weed control at 320 g/ha: 80%
[6]
  pest or weed control at 320 g/ha: 100%
Glycine max (GLXMA); application rate 80 g/ha
  pre-emergence activity against GLXMA in % (crop plant damage): 20%

## CCS(=O)(=O)N1C[S+]([O-])c2cc(C)c(-c3ccccc3C)nc21 (stereo not shown) [Example I-074]
Stellaria media (STEME) [1]
  pest or weed control at 320 g/ha: 90%
Setaria viridis (SETVI); [9]
  pest or weed control at 1280 g/ha: 90%
Stellaria media (STEME) [2]; application rate 1280 g/ha
  pest or weed control at 1280 g/ha: 90%
[3]; application rate 1280 g/ha
  pest or weed control at 1280 g/ha: 90%
[4]
  pest or weed control at 80 g/ha: 80%
Veronica persica (VERPE)
  pest or weed control at 80 g/ha: 80%
[6]
  pest or weed control at 320 g/ha: 100%
Glycine max (GLXMA); application rate 320 g/ha
  pre-emergence activity against GLXMA in % (crop plant damage): 0%

## Cc1cc2c(nc1-c1ccccc1)N(C(=O)C1(C)CC(Cl)=NO1)CS2 (stereo not shown) [Example I-088]
Stellaria media (STEME) [1]
  pre-emergence activity against STEME in %: 90%
[8]; application rate 320 g/ha
  post-emergence activity against ABUTH in %: 90%
Setaria viridis (SETVI)
  post-emergence activity against SETVI in %: 90%
Stellaria media (STEME) [2]; application rate 320 g/ha
  post-emergence activity against STEME in %: 90%
[3]; application rate 320 g/ha
  post-emergence activity against AMARE in %: 90%
[4]
  pre-emergence activity against ALOMY in %: 90%
[5]
  pre-emergence activity against MATIN in %: 90%
[6]
  pre-emergence activity against DIGSA in %: 100%

## Cc1cc2c(nc1-c1cccc(C)c1F)NCS2 [Example I-113]
Stellaria media (STEME) [1]
  pre-emergence activity against STEME in %: 90%
Stellaria media (STEME) [2]; application rate 1280 g/ha
  post-emergence activity against STEME in %: 90%
[6]
  pre-emergence activity against DIGSA in %: 100%
Glycine max (GLXMA); application rate 320 g/ha
  pre-emergence activity against GLXMA in % (crop plant damage): 10%
[7]
  post-emergence activity against ECHCG in %: 80%

## CC1(C(=O)N2CSc3cc(Br)c(-c4ccccc4Cl)nc32)CC(Cl)=NO1 (stereo not shown) [Example I-141, [6-bromo-5-(2-chlorophenyl)[1,3]thiazolo[4,5-b]pyridin-3(2H)-yl](3-chloro-5-methyl-4,5-dihydro-1,2-oxazol-5-yl)methanone]
Stellaria media (STEME) [1]
  pest or weed control at 320 g/ha: 90%
[8]
  pest or weed control at 1280 g/ha: 90%
Stellaria media (STEME) [2]; application rate 1280 g/ha
  pest or weed control at 1280 g/ha: 90%
[3]; application rate 1280 g/ha
  pest or weed control at 1280 g/ha: 90%
[4]
  pest or weed control at 320 g/ha: 80%
Veronica persica (VERPE)
  pest or weed control at 320 g/ha: 90%
[6]
  pest or weed control at 320 g/ha: 90%
